Experimental data as given in patent US20240076624A1, “Methods and Tools for Studying Enteroendocrine Cells” (Koninklijke Nederlandse Akademie Van Wetenschappen, priority 2020, published 2024).
Blank lines part the entries; values can stand above or below the molecule they belong to.

How the values were obtained:
OR51E2 [1] = biological target: T1, OR51E2 (Homo sapiens, UniProt Q9H255); experiment: Calcium sensor (Tq-Ca-FLITS) response in TPH1-mClover NEUROG3-dTomato organoid; assay type: cell-based; conditions: for calcium flux in EECs (TPH1-negative): colon-derived reporter organoid
T1 construct: endogenous in cells; host or cells: human intestinal organoids NEUROG3-dTomato / TPH1-mClover carrying the Tq-Ca-FLITS calcium sensor, differentiated to EECs
T1 sequence (Q9H255 1-320): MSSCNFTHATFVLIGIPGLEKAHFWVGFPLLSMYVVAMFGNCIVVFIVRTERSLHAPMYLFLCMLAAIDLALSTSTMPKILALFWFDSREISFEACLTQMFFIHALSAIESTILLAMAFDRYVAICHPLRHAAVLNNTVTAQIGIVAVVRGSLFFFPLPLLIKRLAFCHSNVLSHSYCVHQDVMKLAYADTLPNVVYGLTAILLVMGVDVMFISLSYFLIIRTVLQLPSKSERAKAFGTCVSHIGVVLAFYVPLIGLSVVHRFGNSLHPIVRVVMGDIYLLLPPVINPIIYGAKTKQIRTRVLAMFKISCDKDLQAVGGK
Excerpt: (F) Fluorescent image of a TPH1^mClover NEUROG3^dTomato organoid that is transduced with the turquoise calcium sensor Tq-Ca-FLITS, containing a nuclear localization signal. Five examples of nuclei are highlighted of which the calcium response is followed after treatment with Beta-ionone, the agonist of OR51E2.
For example, in some embodiments, the compound is beta-ionone and the sensor is a calcium sensor. Beta-ionone is an agonist of the olfactory receptor OR51E2. The mouse homologue of OR51E2 had been reported to be expressed in mouse EECs (Fleischer et al., 2015; Jovancevic et al., 2017). However, prior to the invention, it was not known which human EECs OR51E2 is expressed in. Olfactory genes in humans and mice are very different as these genes quickly evolve. Therefore, the homology of these sequences tend to be low, and it is difficult to project expression profiles of mouse olfactory genes on humans. The inventors have found two olfactory receptors that are abundantly expressed in human EECs, OR51E1 and OR51E2. […] This provided proof-of-concept that sensors combined with hormone reporters from EEC-TAG can aid the study of functional signalling responses in human EEC subtypes. Thus, calcium reporters can be combined as a measure of hormone activation with the knowledge of the expression levels of targets such as olfactory receptors in subpopulations of EECs. Thus, the use of a reporter organoid in conjunction with a calcium reporter allows for screening for activators of targets such as cell surface receptors, e.g. olfactory receptors, and such methods are provided herein. In some embodiments, the calcium assay is conducted in an intestinal organoid which is not itself a reporter organoid and a reporter organoid is used to validate which EEC subtype the calcium is being activated in and so which hormones are being activated. […] This can be extrapolated to which EEC subtype hormone secretion is being activated in.

OR51E2 [2] = biological target: T1, OR51E2; conditions: HEK cells after overexpression of OR51E2 (Pietraszewska-Bogiel et al., 2019); cited from earlier work
[3] = biological target: T2, olfactory receptor OR51E2 (Homo sapiens, UniProt Q9H255); experiment: Live cell imaging of calcium reporter (Tq-Ca-FLITS) organoids; assay type: cell-based; conditions: NEUROG3-dTomato TPH1-mClover CaFLITS-Turquoise reporter organoids; FIG. 2F
T2 construct: endogenous in cells; host or cells: human intestinal organoids NEUROG3-dTomato / TPH1-mClover carrying the Tq-Ca-FLITS calcium sensor, differentiated to EECs
T2 sequence (Q9H255 1-320): T1 sequence (Q9H255 1-320)
Experimental: A red calcium probe (pTorPE-R-GECO1, addgene plasmid #32465) was used as a template to engineer a cyan genetically encoded calcium probe. The cpApple was replaced with a circular permuted mTurquoise. The resulting probe was dubbed Tq-Ca-FLITS (Turquoise Calcium Fluorescence Lifetime Indicator for Truthful Sensing). A triple nuclear localization signal (3×nls) was added to the N-terminus of the calcium probe to simplify analysis. Details of the engineering and characterization will be described elsewhere (Van der Linden et al., in preparation).
PCRs were performed on Tq-Ca-FLITS (Fw […]atgggatcagatccaaaaaagaagag, Rev […]c[…]) as well as H2B-mMaroon (Fw […], Rev […]attaagtttgtgcccc) and the two PCRs were cloned into a lentiviral vector using InPhusion Cloning (Takara), to produce H2B-mMaroon-P2A-Tq-Ca-FLITS, two simultaneously expressed cistrons separated by a de-optimized P2A (Lo et al., 2015).
H2B-mMaroon-P2A-Tq-Ca-FLITS organoids were imaged on a Leica SP8 confocal laser scanning microscope, equipped with Argon laser and White Light Laser, the latter allowing spectral flexibility for optimal visualization of all fluorophores. […]

MLK-7K = conditions: target MLK-7K; cited from earlier work
[4] = test system: enteroendocrine cell differentiated organoids; experiment: Hormone expression in EEC differentiated organoids treated with Midkine; assay type: cell-based, human

- calcium flux in non-EEC (OR51E2 [1]): does not show calcium increases
- calcium flux in EECs (TPH1-negative) (OR51E2 [1]): increases in calcium flux
- calcium flux in EECs (TPH1-negative) (OR51E2 [1]; listed as beta-ionone): calcium sparking
Molecule: CC(=O)/C=C/C1=C(C)CCCC1(C)C [Beta-ionone]
- calcium response (OR51E2 [2]): elicit a calcium response
- calcium reporter response in EECs [3]: calcium sparking in EECs that were TPH1-negative

Molecule: c1ccc(-c2n[nH]cc2-c2ccnc3ccccc23)nc1 [LY-36494, 4-[3-(2-Pyridinyl)-1H-pyrazol-4-yl]-quinoline]
- IC50 (MLK-7K): 1400 nM

B1: Midkine: heparin-binding growth factor, cytokine; sequence SEQ ID NO:69 (protein, listed as Homo sapiens)
chain: VAKKKDKVKKGGPGSECAEWAWGPCTPSSKDCGVGFREGTCGAQTQRIRCRVPCNWKKEFGADCKYKFENWGACDGGTGTKVRQGTLKKARYNAQCQETIRVTKPCTPKTKAKAKAKKGKGKD
- expression of EEC hormones [4]: reduces the expression of all hormones
